Br.Cc1ccc(Sc2ccccc2N2CCNCC2)c(C)c1
solubility (mole fraction)
Settings	283.15 K	288.15 K	293.15 K	298.15 K	303.15 K	308.15 K	313.15 K	318.15 K
in 2-butanone	6.2e-05	8.4e-05	0.000136	0.000163	0.00021	0.000267	0.000311	0.000338
in ethanol	0.00123	0.00138	0.0015	0.00162	0.00199	0.00269	0.00297	0.00341
in n-butanol	0.000582	0.000751	0.00086	0.00121	0.0017	0.00202	0.0023	0.00271
in n-propanol	0.000934	0.00101	0.00115	0.00132	0.00178	0.00214	0.00245	0.00295

Source: BigSolDB 2.1
